Test results taken from ChEMBL document CHEMBL4024706 (Eur J Med Chem, 2017).

What was measured:
[1] = system: NB-4; assay: Growth inhibition of human NB4 cells; assay type: functional; conditions: Homo sapiens, NB-4
[2] = system: U2932; assay: Induction of apoptosis in human U2932 cells assessed as induction of PARP cleavage after 48 hrs by immunoblot; assay type: functional, cell-based
[3] = biological target: Atypical kinase COQ8A, mitochondrial (Homo sapiens) (UniProt Q8NI60); assay: Inhibition of wild-type human […] ADCK3 (M280 to Q647 residues) expressed in bacterial expression system assessed as residual activity at 1 uM by Kinomescan method relative to control
[4] = biological target: 5'-AMP-activated protein kinase catalytic subunit alpha-2 (Homo sapiens) (UniProt P54646); assay: Inhibition of wild-type human partial length AMPK alpha2 (M1 to E306 residues) expressed in bacterial expression system assessed as residual activity at 1 uM by Kinomescan method relative to control
[5] = biological target: Cyclin-dependent kinase 4/cyclin D1 (Homo sapiens) (UniProt P11802+P24385); assay: Inhibition of wild-type human full length CDK4/cyclinD1 (M1 to E303 residues) expressed in mammalian expression system assessed as residual activity at 1 uM by Kinomescan method relative to control
[6] = biological target: Cyclin-dependent kinase 8 (Homo sapiens) (UniProt P49336); assay: Inhibition of wild-type human partial length CDK8 (M1 to T360 residues) expressed in bacterial expression system assessed as residual activity at 1 uM by Kinomescan method relative to control
[7] = biological target: Serine/threonine-protein kinase Chk2 (Homo sapiens) (UniProt O96017); assay: Inhibition of wild-type human partial length CHEK2 (S253 to E574 residues) expressed in bacterial expression system assessed as residual activity at 1 uM by Kinomescan method relative to control
[8] = biological target: Death-associated protein kinase 2 (Homo sapiens) (UniProt Q9UIK4); assay: Inhibition of wild-type human full length DAPK2 (M1 to S370 residues) expressed in bacterial expression system assessed as residual activity at 1 uM by Kinomescan method relative to control
Sequence of Death-associated protein kinase 2 (Homo sapiens) (Q9UIK4 whole entry, looked up, the tested form may be a part): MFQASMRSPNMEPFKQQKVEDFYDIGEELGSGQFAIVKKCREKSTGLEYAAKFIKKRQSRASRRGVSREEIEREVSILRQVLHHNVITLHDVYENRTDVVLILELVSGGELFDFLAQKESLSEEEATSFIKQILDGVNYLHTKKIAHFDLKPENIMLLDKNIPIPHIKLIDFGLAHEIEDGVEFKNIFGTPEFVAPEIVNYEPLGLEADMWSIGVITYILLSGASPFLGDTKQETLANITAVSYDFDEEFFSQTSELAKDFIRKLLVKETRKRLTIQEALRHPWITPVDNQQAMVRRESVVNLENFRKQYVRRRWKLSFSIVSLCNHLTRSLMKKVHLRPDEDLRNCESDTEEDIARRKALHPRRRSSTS

[9] = biological target: Serine/threonine-protein kinase DCLK3 (Homo sapiens) (UniProt Q9C098); assay: Inhibition of wild-type human partial length DCAMKL3 (E140 to V628 residues) expressed in bacterial expression system assessed as residual activity at 1 uM by Kinomescan method relative to control
[10] = biological target: Receptor tyrosine-protein kinase erbB-4 (Homo sapiens) (UniProt Q15303); assay: Inhibition of wild-type human partial length ERBB4 (L690 to K994 residues) expressed in bacterial expression system assessed as residual activity at 1 uM by Kinomescan method relative to control
[11] = biological target: Tyrosine-protein kinase Fes/Fps (Homo sapiens) (UniProt P07332); assay: Inhibition of wild-type human partial length FES (I527 to R822 residues) expressed in bacterial expression system assessed as residual activity at 1 uM by Kinomescan method relative to control
Sequence of Tyrosine-protein kinase Fes/Fps (Homo sapiens) (P07332 whole entry, the tested form may be a part): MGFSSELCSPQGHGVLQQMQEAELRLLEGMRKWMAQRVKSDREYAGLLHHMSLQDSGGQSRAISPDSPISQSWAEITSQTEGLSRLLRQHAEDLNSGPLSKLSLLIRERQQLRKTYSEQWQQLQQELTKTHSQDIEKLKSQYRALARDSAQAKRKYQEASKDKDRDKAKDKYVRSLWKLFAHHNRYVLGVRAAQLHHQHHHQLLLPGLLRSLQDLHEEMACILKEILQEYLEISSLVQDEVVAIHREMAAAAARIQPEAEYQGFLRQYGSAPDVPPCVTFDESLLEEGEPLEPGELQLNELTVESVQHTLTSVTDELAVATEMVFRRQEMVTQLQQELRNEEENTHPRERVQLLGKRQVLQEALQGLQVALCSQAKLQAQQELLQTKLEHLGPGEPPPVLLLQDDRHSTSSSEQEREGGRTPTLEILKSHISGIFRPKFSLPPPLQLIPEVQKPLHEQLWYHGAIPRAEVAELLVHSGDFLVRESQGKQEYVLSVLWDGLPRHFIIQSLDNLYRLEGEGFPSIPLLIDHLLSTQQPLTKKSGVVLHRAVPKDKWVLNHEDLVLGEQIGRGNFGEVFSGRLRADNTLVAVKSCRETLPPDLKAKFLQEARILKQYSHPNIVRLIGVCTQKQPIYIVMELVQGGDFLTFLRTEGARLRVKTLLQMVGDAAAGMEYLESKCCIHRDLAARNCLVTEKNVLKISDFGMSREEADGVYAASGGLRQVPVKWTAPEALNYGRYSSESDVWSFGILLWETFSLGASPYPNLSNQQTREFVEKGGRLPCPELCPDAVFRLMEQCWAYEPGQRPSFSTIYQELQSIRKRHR

[12] = biological target: Fibroblast growth factor receptor 1 (Homo sapiens) (UniProt P11362); assay: Inhibition of wild-type human partial length FGFR1 (P357 to V669 residues) expressed in bacterial expression system assessed as residual activity at 1 uM by Kinomescan method relative to control
Sequence of Fibroblast growth factor receptor 1 (Homo sapiens) (P11362 22-822 limits assumed): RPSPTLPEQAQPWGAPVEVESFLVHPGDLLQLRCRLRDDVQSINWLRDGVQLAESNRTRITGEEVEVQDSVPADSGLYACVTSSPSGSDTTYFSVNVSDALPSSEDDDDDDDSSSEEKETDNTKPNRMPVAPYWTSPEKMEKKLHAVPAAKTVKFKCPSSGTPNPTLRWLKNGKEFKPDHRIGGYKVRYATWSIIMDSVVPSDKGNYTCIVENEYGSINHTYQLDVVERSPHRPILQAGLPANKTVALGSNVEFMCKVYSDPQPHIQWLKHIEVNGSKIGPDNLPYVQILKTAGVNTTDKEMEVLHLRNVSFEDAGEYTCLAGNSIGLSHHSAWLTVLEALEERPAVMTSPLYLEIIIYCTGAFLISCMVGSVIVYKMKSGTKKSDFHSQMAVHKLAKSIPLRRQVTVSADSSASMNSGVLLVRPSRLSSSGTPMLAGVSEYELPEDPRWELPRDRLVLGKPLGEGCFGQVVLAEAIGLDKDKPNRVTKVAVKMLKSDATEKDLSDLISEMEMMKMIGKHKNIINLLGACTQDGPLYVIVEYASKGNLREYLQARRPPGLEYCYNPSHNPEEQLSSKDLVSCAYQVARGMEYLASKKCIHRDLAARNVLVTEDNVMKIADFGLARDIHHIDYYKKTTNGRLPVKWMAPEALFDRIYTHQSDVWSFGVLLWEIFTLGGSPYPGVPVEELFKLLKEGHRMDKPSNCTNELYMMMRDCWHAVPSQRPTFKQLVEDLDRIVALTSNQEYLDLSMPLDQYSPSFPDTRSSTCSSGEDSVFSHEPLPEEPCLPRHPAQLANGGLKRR

[13] = species on record: Homo sapiens; assay: Inhibition of human partial length FLT3 ITD/D835V double mutant expressed in bacterial expression system assessed as residual activity at 1 uM by Kinomescan method relative to control
[14] = biological target: Beta-adrenergic receptor kinase 1 (Homo sapiens) (UniProt P25098); assay: Inhibition of wild-type human full length GRK2 (M1 to L689 residues) expressed in mammalian expression system assessed as residual activity at 1 uM by Kinomescan method relative to control
Sequence of Beta-adrenergic receptor kinase 1 (Homo sapiens) (P25098 whole entry, the tested form may be a part): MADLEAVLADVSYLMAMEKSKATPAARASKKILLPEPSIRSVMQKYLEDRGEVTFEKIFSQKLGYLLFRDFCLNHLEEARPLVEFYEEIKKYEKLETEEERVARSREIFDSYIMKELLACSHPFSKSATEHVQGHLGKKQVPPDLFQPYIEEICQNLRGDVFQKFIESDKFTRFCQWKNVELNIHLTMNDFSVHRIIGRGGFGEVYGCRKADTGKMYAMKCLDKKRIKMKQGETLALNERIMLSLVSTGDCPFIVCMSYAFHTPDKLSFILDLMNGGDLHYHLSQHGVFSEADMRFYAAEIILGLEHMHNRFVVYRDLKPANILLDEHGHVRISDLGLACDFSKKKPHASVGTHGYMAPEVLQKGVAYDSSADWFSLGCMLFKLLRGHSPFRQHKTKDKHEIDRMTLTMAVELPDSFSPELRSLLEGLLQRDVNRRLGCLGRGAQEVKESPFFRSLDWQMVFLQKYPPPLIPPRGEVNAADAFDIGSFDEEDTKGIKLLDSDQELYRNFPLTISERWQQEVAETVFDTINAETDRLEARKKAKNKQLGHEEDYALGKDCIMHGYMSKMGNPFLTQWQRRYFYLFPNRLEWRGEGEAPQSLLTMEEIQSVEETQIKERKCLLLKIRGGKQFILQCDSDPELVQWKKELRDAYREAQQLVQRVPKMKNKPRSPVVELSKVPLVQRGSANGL

[15] = biological target: G protein-coupled receptor kinase 4 (Homo sapiens) (UniProt P32298); assay: Inhibition of wild-type human full length GRK4 (M1 to C578 residues) expressed in bacterial expression system assessed as residual activity at 1 uM by Kinomescan method relative to control
[16] = biological target: Homeodomain-interacting protein kinase 1 (Homo sapiens) (UniProt Q86Z02); assay: Inhibition of wild-type human partial length HIPK1 (M146 to I555 residues) expressed in mammalian expression system assessed as residual activity at 1 uM by Kinomescan method relative to control
[17] = biological target: Insulin-like growth factor 1 receptor (Homo sapiens) (UniProt P08069); assay: Inhibition of wild-type human partial length IGF1R (L972 to D1294 residues) expressed in bacterial expression system assessed as residual activity at 1 uM by Kinomescan method relative to control
[18] = biological target: Interleukin-1 receptor-associated kinase 3 (Homo sapiens) (UniProt Q9Y616); assay: Inhibition of wild-type human partial length IRAK3 (V147 to E596 residues) expressed in bacterial expression system assessed as residual activity at 1 uM by Kinomescan method relative to control
Sequence of Interleukin-1 receptor-associated kinase 3 (Homo sapiens) (Q9Y616 whole entry, the tested form may be a part): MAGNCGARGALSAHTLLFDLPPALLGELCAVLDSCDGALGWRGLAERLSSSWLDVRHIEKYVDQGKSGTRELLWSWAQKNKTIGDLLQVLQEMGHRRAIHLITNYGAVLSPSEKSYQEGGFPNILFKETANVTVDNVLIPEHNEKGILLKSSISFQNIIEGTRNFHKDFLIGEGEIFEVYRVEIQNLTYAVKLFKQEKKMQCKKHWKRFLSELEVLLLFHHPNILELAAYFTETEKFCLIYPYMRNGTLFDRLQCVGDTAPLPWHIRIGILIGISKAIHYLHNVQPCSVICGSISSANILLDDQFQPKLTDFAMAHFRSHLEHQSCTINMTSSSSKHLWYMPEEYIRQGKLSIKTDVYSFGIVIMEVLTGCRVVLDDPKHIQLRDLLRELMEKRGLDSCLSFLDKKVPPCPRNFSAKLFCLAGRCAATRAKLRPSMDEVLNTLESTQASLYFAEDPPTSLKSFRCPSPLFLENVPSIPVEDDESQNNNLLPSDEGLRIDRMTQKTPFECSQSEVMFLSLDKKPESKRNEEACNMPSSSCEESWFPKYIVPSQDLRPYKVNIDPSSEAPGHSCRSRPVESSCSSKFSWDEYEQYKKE

[19] = biological target: Mitogen-activated protein kinase kinase kinase 13 (Homo sapiens) (UniProt O43283); assay: Inhibition of wild-type human full length LZK (M1 to W966 residues) expressed in mammalian expression system assessed as residual activity at 1 uM by Kinomescan method relative to control
[20] = biological target: Mitogen-activated protein kinase kinase kinase 3 (Homo sapiens) (UniProt Q99759); assay: Inhibition of wild-type human partial length MAP3K3 (E320 to Y626 residues) expressed in mammalian expression system assessed as residual activity at 1 uM by Kinomescan method relative to control
[21] = biological target: Dual specificity mitogen-activated protein kinase kinase 6 (Homo sapiens) (UniProt P52564); assay: Inhibition of wild-type human partial length MEK6 (K36 to D334 residues) expressed in bacterial expression system assessed as residual activity at 1 uM by Kinomescan method relative to control
[22] = biological target: Serine/threonine-protein kinase mTOR (Homo sapiens) (UniProt P42345); assay: Inhibition of wild-type human partial length MTOR (L1382 to W2549 residues) expressed in mammalian expression system assessed as residual activity at 1 uM by Kinomescan method relative to control
[23] = biological target: Cyclin-dependent kinase 2 homolog (Plasmodium falciparum (isolate 3D7)) (UniProt P61075); assay: Inhibition of wild-type Plasmodium falciparum isolate 3D7 full length PK5 (M1 to N288 residues) expressed in mammalian expression system assessed as residual activity at 1 uM by Kinomescan method relative to control
Sequence of Cyclin-dependent kinase 2 homolog (Plasmodium falciparum (isolate 3D7)) (P61075 whole entry, the tested form may be a part): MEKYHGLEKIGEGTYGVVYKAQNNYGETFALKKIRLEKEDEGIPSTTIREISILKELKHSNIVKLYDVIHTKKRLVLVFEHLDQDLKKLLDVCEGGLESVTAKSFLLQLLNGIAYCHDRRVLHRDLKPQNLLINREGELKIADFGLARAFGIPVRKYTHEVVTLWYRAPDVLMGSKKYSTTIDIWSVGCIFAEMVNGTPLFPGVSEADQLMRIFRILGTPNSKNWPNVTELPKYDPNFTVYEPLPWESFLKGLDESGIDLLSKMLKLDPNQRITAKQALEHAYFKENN

[24] = biological target: Phosphatidylinositol 3-kinase C2 domain-containing subunit gamma (Homo sapiens) (UniProt O75747); assay: Inhibition of wild-type human partial length PIK3C2G (M1 to I1446 residues) expressed in mammalian expression system assessed as residual activity at 1 uM by Kinomescan method relative to control
Sequence of Phosphatidylinositol 3-kinase C2 domain-containing subunit gamma (Homo sapiens) (O75747 whole entry, the tested form may be a part): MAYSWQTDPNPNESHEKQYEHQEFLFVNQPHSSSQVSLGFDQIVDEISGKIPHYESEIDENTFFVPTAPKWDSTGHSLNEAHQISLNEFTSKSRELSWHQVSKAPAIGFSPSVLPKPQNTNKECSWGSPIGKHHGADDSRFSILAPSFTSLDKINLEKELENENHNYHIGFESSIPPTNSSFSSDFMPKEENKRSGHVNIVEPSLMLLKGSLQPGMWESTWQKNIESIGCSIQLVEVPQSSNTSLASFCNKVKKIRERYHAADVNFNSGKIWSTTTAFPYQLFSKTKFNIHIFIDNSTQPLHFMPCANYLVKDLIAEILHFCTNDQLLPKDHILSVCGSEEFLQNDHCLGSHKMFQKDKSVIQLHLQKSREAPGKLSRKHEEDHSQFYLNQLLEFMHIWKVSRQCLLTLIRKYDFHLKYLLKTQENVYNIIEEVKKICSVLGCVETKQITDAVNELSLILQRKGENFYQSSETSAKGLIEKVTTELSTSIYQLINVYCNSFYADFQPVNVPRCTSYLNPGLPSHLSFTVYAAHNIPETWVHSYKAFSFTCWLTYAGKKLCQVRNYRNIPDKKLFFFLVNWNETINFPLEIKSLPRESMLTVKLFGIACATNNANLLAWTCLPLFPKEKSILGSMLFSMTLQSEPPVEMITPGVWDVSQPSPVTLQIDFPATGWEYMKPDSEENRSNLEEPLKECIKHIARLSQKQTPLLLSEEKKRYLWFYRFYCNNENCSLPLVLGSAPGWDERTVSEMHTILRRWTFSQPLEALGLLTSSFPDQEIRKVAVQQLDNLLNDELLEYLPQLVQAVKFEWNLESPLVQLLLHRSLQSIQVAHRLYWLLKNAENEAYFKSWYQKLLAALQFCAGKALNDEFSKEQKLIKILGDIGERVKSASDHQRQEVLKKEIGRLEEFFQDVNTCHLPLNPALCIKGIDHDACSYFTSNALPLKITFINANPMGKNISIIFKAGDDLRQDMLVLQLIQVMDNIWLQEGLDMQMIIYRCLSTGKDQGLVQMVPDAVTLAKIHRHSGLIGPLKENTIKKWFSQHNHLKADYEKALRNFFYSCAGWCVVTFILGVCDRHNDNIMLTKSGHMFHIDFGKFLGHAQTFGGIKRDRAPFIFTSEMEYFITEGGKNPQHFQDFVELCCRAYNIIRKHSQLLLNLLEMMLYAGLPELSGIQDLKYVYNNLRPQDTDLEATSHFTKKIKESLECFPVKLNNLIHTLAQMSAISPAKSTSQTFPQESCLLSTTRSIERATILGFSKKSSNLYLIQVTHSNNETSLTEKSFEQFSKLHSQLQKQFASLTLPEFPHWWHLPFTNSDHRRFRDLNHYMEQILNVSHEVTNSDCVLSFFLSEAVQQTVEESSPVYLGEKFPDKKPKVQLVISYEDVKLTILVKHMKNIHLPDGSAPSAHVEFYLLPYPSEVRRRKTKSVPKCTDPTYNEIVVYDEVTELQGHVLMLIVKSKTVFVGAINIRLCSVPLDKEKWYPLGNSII

[25] = biological target: Serine/threonine-protein kinase N1 (Homo sapiens) (UniProt Q16512); assay: Inhibition of wild-type human partial length PKN1 (E598 to C948 residues) expressed in bacterial expression system assessed as residual activity at 1 uM by Kinomescan method relative to control
[26] = biological target: Receptor-interacting serine/threonine-protein kinase 1 (Homo sapiens) (UniProt Q13546); assay: Inhibition of wild-type human partial length RIPK1 (M1 to K305 residues) expressed in bacterial expression system assessed as residual activity at 1 uM by Kinomescan method relative to control

C=CC(=O)Nc1cc(Nc2cc(-c3cccc(NC(=O)c4ccc(C(C)(C)C)cc4)c3C)cn(C)c2=O)ccc1C(=O)N1CCOCC1
GI50 [1]: 6.6 µM | Activity [2]: Dose-dependent effect | Activity [3]: 79% | Activity [4]: 92% | Activity [5]: 100% | Activity [6]: 100% | Activity [7]: 87% | Activity [8]: 99% | Activity [9]: 100% | Activity [10]: 95% | Activity [11]: 84% | Activity [12]: 94% | Activity [13]: 100% | Activity [14]: 100% | Activity [15]: 80% | Activity [16]: 100% | Activity [17]: 92% | Activity [18]: 96% | Activity [19]: 98% | Activity [20]: 100% | Activity [21]: 100% | Activity [22]: 100% | Activity [23]: 88% | Activity [24]: 95% | Activity [25]: 100% | Activity [26]: 100%
